Laboratory results: the supplement of paper PMC10883282

Experiments:
Assay in all cases: relative viability vs DMSO control (72 h) (fraction); higher = more viable cells
HT1080 = tested on: HT1080
Procedure, shortened: (§1)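 Plates held 72 h at 37 °C and 5% CO2 contained sarcoma cell lines seeded in 384-well format to reach 80–90% confluence, plus 2.5 µl of serially diluted compound added after 24 h. Source plate concentrations ran from 10 mM to 0.0002 mM, with 0.1% DMSO as vehicle and a 5 µM positive control. Percent growth from ATPLite readings, averaged over up to triplicate wells, gave relative viability. Values were rescaled with 1 as full and 0 as none.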

SW872 = tested on: SW872
Procedure, shortened: as §1

SW1353 = tested on: SW1353
Procedure, shortened: as §1

KHOS-NP = tested on: KHOS-NP
Procedure, shortened: as §1

RD-ES = tested on: RD-ES
Procedure, shortened: as §1

MES-SA = tested on: MES-SA
Procedure, shortened: as §1

SK-ES-1 = tested on: SK-ES-1
Procedure, shortened: as §1

SW684 = tested on: SW684
Procedure, shortened: as §1

SK-LMS-1 = tested on: SK-LMS-1
Procedure, shortened: as §1

G401 = tested on: G401
Procedure, shortened: as §1

VA-ES-BJ = tested on: VA-ES-BJ
Procedure, shortened: as §1

RD = tested on: RD
Procedure, shortened: as §1

C=CC(=O)Nc1cc(Nc2nccc(-c3cn(C)c4ccccc34)n2)c(OC)cc1N(C)CCN(C)C [Osimertinib]
Settings | relative viability
G401, 0.00017 µM | 1.01
G401, 0.00051 µM | 1.02
G401, 0.00152 µM | 1.03
G401, 0.00457 µM | 1.03
G401, 0.01372 µM | 1.02
G401, 0.04115 µM | 0.976
G401, 0.1235 µM | 0.962
G401, 0.3704 µM | 0.87
G401, 1.111 µM | 0.816
G401, 3.333 µM | 0.711
G401, 10 µM | 0.0893
HT1080, 0.00017 µM | 1.08
HT1080, 0.00051 µM | 1.09
HT1080, 0.00152 µM | 1.06
HT1080, 0.00457 µM | 1.06
HT1080, 0.01372 µM | 1.04
HT1080, 0.04115 µM | 1.06
HT1080, 0.1235 µM | 1.07
HT1080, 0.3704 µM | 1.03
HT1080, 1.111 µM | 0.992
HT1080, 3.333 µM | 0.935
HT1080, 10 µM | 0.0308
KHOS-NP, 0.00017 µM | 1.1
KHOS-NP, 0.00051 µM | 1.11
KHOS-NP, 0.00152 µM | 1.084
KHOS-NP, 0.00457 µM | 1.08
KHOS-NP, 0.01372 µM | 1.07
KHOS-NP, 0.04115 µM | 1.06
KHOS-NP, 0.1235 µM | 1.06
KHOS-NP, 0.3704 µM | 1.05
KHOS-NP, 1.111 µM | 1.05
KHOS-NP, 3.333 µM | 1.02
KHOS-NP, 10 µM | 0.505
MES-SA, 0.00017 µM | 0.979
MES-SA, 0.00051 µM | 0.947
MES-SA, 0.00152 µM | 0.961
MES-SA, 0.00457 µM | 0.932
MES-SA, 0.01372 µM | 0.97
MES-SA, 0.04115 µM | 0.941
MES-SA, 0.1235 µM | 0.948
MES-SA, 0.3704 µM | 0.882
MES-SA, 1.111 µM | 0.758
MES-SA, 3.333 µM | 0.569
MES-SA, 10 µM | 0.29
RD, 0.00017 µM | 1.08
RD, 0.00051 µM | 1.08
RD, 0.00152 µM | 1.11
RD, 0.00457 µM | 1.11
RD, 0.01372 µM | 1.11
RD, 0.04115 µM | 1.11
RD, 0.1235 µM | 1.1
RD, 0.3704 µM | 1.07
RD, 1.111 µM | 1.02
RD, 3.333 µM | 0.78
RD, 10 µM | 0.0148
RD-ES, 0.00017 µM | 0.962
RD-ES, 0.00051 µM | 0.978
RD-ES, 0.00152 µM | 0.977
RD-ES, 0.00457 µM | 0.971
RD-ES, 0.01372 µM | 0.979
RD-ES, 0.04115 µM | 0.964
RD-ES, 0.1235 µM | 0.947
RD-ES, 0.3704 µM | 0.892
RD-ES, 1.111 µM | 0.775
RD-ES, 3.333 µM | 0.598
RD-ES, 10 µM | 0.0212
SK-ES-1, 0.00017 µM | 1
SK-ES-1, 0.00051 µM | 1.05
SK-ES-1, 0.00152 µM | 1.07
SK-ES-1, 0.00457 µM | 1.01
SK-ES-1, 0.01372 µM | 1.02
SK-ES-1, 0.04115 µM | 1.026
SK-ES-1, 0.1235 µM | 1
SK-ES-1, 0.3704 µM | 0.942
SK-ES-1, 1.111 µM | 0.762
SK-ES-1, 3.333 µM | 0.294
SK-ES-1, 10 µM | 0.011
SK-LMS-1, 0.00017 µM | 1.1
SK-LMS-1, 0.00051 µM | 1.1
SK-LMS-1, 0.00152 µM | 1.08
SK-LMS-1, 0.00457 µM | 1.07
SK-LMS-1, 0.01372 µM | 1.06
SK-LMS-1, 0.04115 µM | 1.03
SK-LMS-1, 0.1235 µM | 1.07
SK-LMS-1, 0.3704 µM | 1.02
SK-LMS-1, 1.111 µM | 0.972
SK-LMS-1, 3.333 µM | 0.776
SK-LMS-1, 10 µM | 0.032
SW684, 0.00017 µM | 1.11
SW684, 0.00051 µM | 1.18
SW684, 0.00152 µM | 1.21
SW684, 0.00457 µM | 1.2
SW684, 0.01372 µM | 1.16
SW684, 0.04115 µM | 1.13
SW684, 0.1235 µM | 1.13
SW684, 0.3704 µM | 1.12
SW684, 1.111 µM | 1.11
SW684, 3.333 µM | 0.984
SW684, 10 µM | 0.063
SW872, 0.00017 µM | 1.078
SW872, 0.00051 µM | 1.06
SW872, 0.00152 µM | 1.06
SW872, 0.00457 µM | 1.08
SW872, 0.01372 µM | 1.04
SW872, 0.04115 µM | 1.02
SW872, 0.1235 µM | 1.03
SW872, 0.3704 µM | 0.988
SW872, 1.111 µM | 0.894
SW872, 3.333 µM | 0.761
SW872, 10 µM | 0.384
SW1353, 0.00017 µM | 1.014
SW1353, 0.00051 µM | 1.007
SW1353, 0.00152 µM | 1.002
SW1353, 0.00457 µM | 1
SW1353, 0.01372 µM | 0.97
SW1353, 0.04115 µM | 0.96
SW1353, 0.1235 µM | 0.9
SW1353, 0.3704 µM | 0.82
SW1353, 1.111 µM | 0.8
SW1353, 3.333 µM | 0.742
SW1353, 10 µM | 0.0174
VA-ES-BJ, 0.00017 µM | 1.09
VA-ES-BJ, 0.00051 µM | 1.09
VA-ES-BJ, 0.00152 µM | 1.06
VA-ES-BJ, 0.00457 µM | 1.04
VA-ES-BJ, 0.01372 µM | 1.03
VA-ES-BJ, 0.04115 µM | 1.02
VA-ES-BJ, 0.1235 µM | 0.984
VA-ES-BJ, 0.3704 µM | 0.926
VA-ES-BJ, 1.111 µM | 0.877
VA-ES-BJ, 3.333 µM | 0.752
VA-ES-BJ, 10 µM | 0.0739
